Measurements reported in patent US10118930B2, “Piperidinylpyrazolopyrimidinones and their use” (BAYER PHARMA AKTIENGESELLSCHAFT, priority 2015, dated 2018).
Structures can show the parent of a compound that is named as a salt.

The molecules below were run on clot lysis (fibrinolysis) in diluted human citrated plasma, tPA-induced (assay: Plasma-based clot lysis assay (5%)). Settings: human citrated platelet-poor plasma 5%, fibrinogen 3 μM, CaCl2 10 mM, tPA 0.2 nM, 37° C., OD at 405 nm.
Format: biochemical
Method: B-2. Plasma-based Clot Lysis Assay (5%)
The clot-lysis test system configures the kinetics of clot formation and degradation in vitro and allows quantifying modulation of the process by selected test compounds.
The test compounds were dissolved in 1% acetic acid and further complemented with an equal volume of DMSO. The resulting stock solutions were serially diluted in 0.5% acetic acid/50% DMSO. 1 μL aliquots of these solutions were placed into 384 well microplates (Greiner, black, transparent bottom), followed by 30 μL of diluted human citrated plasma (platelet-poor, final concentration: 5%; supplemented with fibrinogen, final concentration: 3 μM; dilution buffer: 20 mM HEPES, 150 mM NaCl, 0.01% Brij (pH 7)). The reactions were started by addition of 20 μL of CaCl2 (final concentration: 10 mM), and tPA (tissue plasminogen activator, final concentration: 0.2 nM) in dilution buffer, followed by an additional volume of 20 μL dilution buffer for improved mixing. The reactions were incubated at 37° C. […] IC50 values were determined by comparing the resulting time courses with the time course of a blank control reaction.

Row | IC50 [nM] | Structure (SMILES)
1 | 21 | CCC(c1ccc(OC)cc1)c1nc(-c2cnn3c(C4CCNCC4)cc(=O)[nH]c23)no1 (racemic) [Example 241, 3-{5-[rac-1-(4-methoxyphenyl)propyl]-1,2,4-oxadiazol-3-yl}-7-(piperidin-4-yl)pyrazolo[1,5-a]pyrimidin-5(4H)-one hydrochloride]
2 | 29 | CC1(c2nc(-c3cnn4c(C5CCNCC5)cc(=O)[nH]c34)no2)CC1 (racemic) [Example 381, Rac-3-[5-(1-Methylcyclopropyl)-1,2,4-oxadiazol-3-yl]-7-(piperidin-4-yl)pyrazolo[1,5-a]pyrimidin-5(4H)-one hydrochloride]
3 | 28 | CC1(c2nc(-c3cnn4c(C5CCNCC5)cc(=O)[nH]c34)no2)CCCC1 (racemic) [Example 386, Rac-3-[5-(1-Methylcyclopentyl)-1,2,4-oxadiazol-3-yl]-7-(piperidin-4-yl)pyrazolo[1,5-a]pyrimidin-5(4H)-one hydrochloride]
4 | 30 | O=c1cc(C2CCNCC2)n2ncc(-c3noc(C4CCCO4)n3)c2[nH]1 (racemic) [Example 389, Rac-7-(piperidin-4-yl)-3-(5-(tetrahydrofuran-2-yl)-1,2,4-oxadiazol-3-yl)pyrazolo[1,5-a]pyrimidin-5(4H)-one hydrochloride]
5 | 33 | COCc1nn2c(C3CCNCC3)cc(=O)[nH]c2c1-c1ccc(OC)cc1 [Example 3, 2-(Methoxymethyl)-3-(4-methoxyphenyl)-7-(piperidin-4-yl)pyrazolo[1,5-a]pyrimidin-5 (4H)-one hydrochloride]
6 | 40 | O=c1cc(C2CCNCC2)n2ncc(-c3ccc(F)cc3)c2[nH]1 [Example 4, 3-(4-Fluorophenyl)-7-(piperidin-4-yl)pyrazolo[1,5-a]pyrimidin-5(4H)-one hydrochloride]
7 | 32 | O=c1cc(C2CCNCC2)n2ncc(-c3cccnc3)c2[nH]1 [Example 5, 7-(Piperidin-4-yl)-3-(pyridin-3-yl)pyrazolo[1,5-a]pyrimidin-5 (4H)-one hydrochloride]
8 | 110 | Cc1nn2c(C3CCNCC3)cc(=O)[nH]c2c1-c1ccc(Br)cc1 [Example 10, 3-(4-Bromophenyl)-2-methyl-7-(piperidin-4-yl)pyrazolo[1,5-a]pyrimidin-5(4H)-one hydrochloride]
9 | 24 | NC(=O)c1cnn2c(C3CCNCC3)cc(=O)[nH]c12 [Example 14, 5-Oxo-7-(piperidin-4-yl)-4,5-dihydropyrazolo[1,5-a]pyrimidine-3-carboxamide hydrochloride]
10 | 11 | CCOC(=O)c1cnn2c(C3CCNCC3)cc(=O)[nH]c12 [Example 16, Ethyl 5-oxo-7-(piperidin-4-yl)-4,5-dihydropyrazolo[1,5-a]pyrimidine-3-carboxylate hydrochloride]
11 | 46 | O=C(O)c1cnn2c(C3CCNCC3)cc(=O)[nH]c12 [Example 17, 5-Oxo-7-(piperidin-4-yl)-4,5-dihydropyrazolo[1,5-a]pyrimidine-3-carboxylic acid hydrochloride]
12 | 14 | CC(C)CNC(=O)c1cnn2c(C3CCNCC3)cc(=O)[nH]c12 [Example 21, N-Isobutyl-5-oxo-7-(piperidin-4-yl)-4,5-dihydropyrazolo[1,5-a]pyrimidine-3-carboxamide hydrochloride]
13 | 13 | O=C(NCc1ccccc1)c1cnn2c(C3CCNCC3)cc(=O)[nH]c12 [Example 22, N-Benzyl-5-oxo-7-(piperidin-4-yl)-4,5-dihydropyrazolo[1,5-a]pyrimidine-3-carboxamide hydrochloride]
14 | 59 | O=c1cc(C2CCNCC2)n2nc(C(F)(F)F)cc2[nH]1 [Example 24, 7-(Piperidin-4-yl)-2-(trifluoromethyl)pyrazolo[1,5-a]pyrimidin-5(4H)-one hydrochloride]
15 | 160 | O=c1cc(C2CCNCC2)n2nc(-c3cccs3)cc2[nH]1 [Example 25, 7-(Piperidin-4-yl)-2-(2-thienyl)pyrazolo[1,5-a]pyrimidin-5(4H)-one hydrochloride]
16 | 170 | O=c1cc(C2CCNCC2)n2nc(-c3ccc(F)cc3)cc2[nH]1 [Example 27, 2-(4-Fluorophenyl)-7-(piperidin-4-yl)pyrazolo[1,5-a]pyrimidin-5(4H)-one hydrochloride]
17 | 110 | COC(=O)c1cc2[nH]c(=O)cc(C3CCNCC3)n2n1 [Example 28, Methyl 5-oxo-7-(piperidin-4-yl)-4,5-dihydropyrazolo[1,5-a]pyrimidine-2-carboxylate]
18 | 20 | O=c1cc(C2CCNCC2)n2nc(-c3ccccc3)c(Br)c2[nH]1 [Example 29, 3-Bromo-2-phenyl-7-(piperidin-4-yl)pyrazolo[1,5-a]pyrimidin-5(4H)-one hydrochloride]
19 | 15 | Cc1noc(-c2cnn3c(C4CCNCC4)cc(=O)[nH]c23)n1 [Example 32, 3-(3-Methyl-1,2,4-oxadiazol-5-yl)-7-(piperidin-4-yl)pyrazolo[1,5-a]pyrimidin-5(4H)-one hydrochloride]
20 | 12 | CCCc1noc(-c2cnn3c(C4CCNCC4)cc(=O)[nH]c23)n1 [Example 34, 7-(Piperidin-4-yl)-3-(3-propyl-1,2,4-oxadiazol-5-yl)pyrazolo[1,5-a]pyrimidin-5(4H)-one hydrochloride]
21 | 15 | O=c1cc(C2CCNCC2)n2ncc(-c3nc(-c4ccccc4)no3)c2[nH]1 [Example 35, 3-(3-Phenyl-1,2,4-oxadiazol-5-yl)-7-(piperidin-4-yl)pyrazolo[1,5-a]pyrimidin-5(4H)-one hydrochloride]
22 | 28 | Cc1ccc(S(C)(=O)=NC(=O)c2cnn3c(C4CCNCC4)cc(=O)[nH]c23)cc1 (stereo not shown) [Example 36, N-[Methyl(4-methylphenyl)oxido-lambda^6-sulfanylidene]-5-oxo-7-(piperidin-4-yl)-4,5-dihydropyrazolo[1,5-a]pyrimidine-3-carboxamide hydrochloride]
23 | 29 | O=C(N=S1(=O)CCOCC1)c1cnn2c(C3CCNCC3)cc(=O)[nH]c12 [Example 37, N-(4-Oxido-1,4-lambda^4-oxathian-4-ylidene)-5-oxo-7-(piperidin-4-yl)-4,5-dihydropyrazolo[1,5-a]pyrimidine-3-carboxamide hydrochloride]
24 | 18 | CCOC(=O)c1c(-c2ccccc2)nn2c(C3CCNCC3)cc(=O)[nH]c12 [Example 38, Ethyl 5-oxo-2-phenyl-7-(piperidin-4-yl)-4,5-dihydropyrazolo[1,5-a]pyrimidine-3-carboxylate trifluoroacetate]

Row | Structure (SMILES) | IC50 [nM]
25 | Cc1nn2c(C3CCNCC3)cc(=O)[nH]c2c1C#N [Example 8, 2-Methyl-5-oxo-7-(piperidin-4-yl)-4,5-dihydropyrazolo[1,5-a]pyrimidine-3-carbonitrile trifluoroacetate] | 29
26 | N#Cc1cnn2c(C3CCNCC3)cc(=O)[nH]c12 [Example 15, 5-Oxo-7-(piperidin-4-yl)-4,5-dihydropyrazolo[1,5-a]pyrimidine-3-carbonitrile] | 19
27 | O=c1cc(C2CCNCC2)n2nc(C3CC3)cc2[nH]1 [Example 26, 2-Cyclopropyl-7-(piperidin-4-yl)pyrazolo[1,5-a]pyrimidin-5(4H)-one hydrochloride] | 310
28 | O=c1cc(C2CCNCC2)n2nc3c(c2[nH]1)CCC3 [Example 30, 4-(Piperidin-4-yl)-1,7,8,9-tetrahydro-2H-cyclopenta[3,4]pyrazolo[1,5-a]pyrimidin-2-one hydrochloride] | 200
